Patent US20100004171A1, “Therapeutic Methods for Neuropathic Pain” (priority 2006, published 2010)
Where no end group is shown, it is not given here.

Columns and labels:
NMDA receptors = settings: cited from earlier work; for effect on hyperalgesia and allodynia: given systemically and locally; for doses at which the effects are seen: reported by some researchers
[1] = tested on: tactile allodynia in allodynic rats; test: Tactile allodynia test (von Frey filaments, paw withdrawal threshold) in CCI (Bennett model) rats; assay type: in vivo, rat; settings: for effect on paw-withdrawal threshold: intrathecal 100 nmol in 10 μl in allodynic rats, day 7 after injury, up to 8 hr
Description: Bennett Model: In this model, approximately 0.8 cm of the left sciatic nerve was exposed and freed with sharpened scissors at middle-thigh level as described by Bennett and Xie.^[76] Four ligatures were placed loosely around the sciatic nerve with 4-0 chromic catgut, with 1 mm space between the ties, which compresses the nerve but epineural blood circulation is preserved. The tissue and skin were closed in layers. […] Most allodynia was seen during the time period of 7-14 days after the surgery.
Intrathecal catheter installation: A PE10 catheter, stretched to a somewhat thinner diameter in the distal part, was introduced into the spinal canal (subarachnoid space) via a 21 G (gauge) cannula between the L5 and L6 lamina and advanced to the lumbar enlargement in rats. The proximal part was tunneled under the skin and led out on the upper dorsal region. The location of the catheter was verified by the injection of 6 μl (50 mg/ml) xylocalne, such that a transient, flaccid paralysis of the legs was produced, and by X-ray after administration of 10 μl iodine contrast medium (Astra, Sweden). The catheter could be kept for up to two weeks in animals.^[79]
(§1) The maximum volume injected at any one time was 10 μl.^[79]
Tactile allodynia test: In a transparent glass chamber (20×20 cm) with a mesh net floor, each animal was subjected to the tactile allodynia test. A positive response is when an innocuous tactile stimulus induces a brief paw withdrawal away from the stimulation, similar to a paw withdrawal due to heat. A set of von Frey filaments from 0.01 to 28 g (Stoelting Co., Wood Dale, Ill.) were applied to the mid-paw of the allodynic rats at 1 gram, and then progressing up or down. The filament was pressed against the plantar surface for 1 to 2 seconds until it bent. Subsequent applications were made with a higher or lower von Frey filament depending on the animal response. The testing always began with normal paws. If a filament induced a brief paw withdrawal of a paw without bending in three out of five tests, the size of the filament was recorded as eliciting a positive withdrawal threshold.^[80] Allodynia was considered to be present when a withdrawal threshold was evoked by a filament corresponding to 8 grams or less.
(§2) In rats with tactile allodynia (a withdrawal threshold with a filament below 8 g), an intrathecal catheter (PE 10) was installed and linked to an osmotic pump (Alzet) in a 37° C. water bath. Following a bolus injection of SCP-1 (30 nmol/kg, 10 μl), agrin siRNA (100 nM) was intrathecally administered continuously by the pump at a rate of 5 μl/1 hour for 4 hr. The animals were subjected to von Frey filament test every 15 min for 4 hr to determine whether the effects of SCP-1 on allodynia suppression are blocked by agrin siRNA. A control siRNA (nFsiRNA) was applied in the same way. The behavioral data was analyzed for agrin effects. Immediately after behavioral experiments, the animals were sacrificed and subjected to protein extraction of lumbar spinal cord, followed by Western-blot analysis as described above.
A blind test was designed for intrathecal drug evaluations. Five days after CCI, rats were subjected to tactile allodynia tests with von Frey filaments. If a filament corresponding to 8 grams or less evoked a withdrawal response on the rat paw (at least 3 responses out of 5 stimuli), the value was designated as the allodynia threshold. […] Either a drug (100 nmol in 10 μl saline) or vehicle (only 10 μl saline) was pre-warmed and intrathecally injected into the allodynic rats. Then the rats were assayed for changes in allodynic and hyperalgesic behavior, agrin gene expression, and agrin protein changes. In addition, distribution and amount of agrin in the dorsal horn were visualized using immunostaining of L5 as reported above in Example 7.

[2] = tested on: tactile allodynia in allodynic rats; test: as above; assay type: in vivo, rat
agrin protein [3] = test: Western blot of agrin protein in L3-5 spinal cord; assay type: in vivo, rat
Procedure: Western blot for detecting protein expression of agrin: Agrin protein was analyzed from L3-5 spinal cord with Western blot as described below at times of 1 day, 3 days, and 7 days post-surgery. The changes in these proteins between sham-operated, nerve-injured (no drug), and nerve-injured (pre-emptive drug) groups were analyzed.
Agrin Protein Extraction: The rats were deeply anesthetized with isoflurane and decapitated. Spinal cord L3-5 was quickly removed and immediately placed into tissue lysis buffer (1 ml, Sigma Co., St. Louis, Mo.) that contained protein enzyme inhibitors (1:100, Halt, Pierce). The tissue was homogenized for 2 min and incubated on ice for 45 min. The sample was then centrifuged at 10,000×g for 30 min at 4° C. The supernatant was transferred to a new tube and centrifuged again for further clarifying. The concentration of the protein was determined by an Agilent's Bio-Rad protein chip (Agilent's 2100 bioanalyzer, Santa Clara, Calif.) and by the […] (reagents from Bio-Rad).
(§3) Western blot: Protein (20 μg) from each sample was mixed with 2× electrophoresis buffer and boiled for 5 min. The samples, along with a negative control, were loaded on 4-15% acrylamide tris-glycine SDS gels and electrophoresed in a cell (Bio-Rad) for approximately 1 hr. A Hybond-P polyvinylidene difluoride membrane (Bio-Rad, Hercules, Calif.) was used for transferring the protein in a mini-trans-blot transfer cell (Bio-Rad) for 2 hr. The membrane was then soaked in 2% milk for 1 hour and probed with monoclonal agrin antibody (Agr510 and Agr530, 1:5000, StressGen Biotechnologies Corp., Victoria, Canada) or β-actin antibody (1:5000) at 4° C. overnight with continual shaking. The following day goat anti-mouse secondary antibody conjugated to Alexa Fluor680 (1:5000, Molecular Probe) was added to the membrane and incubated for 1 hr at room temperature. The samples were washed three times with TBS buffer (Tris Buffered Saline, DAKO, Carpinteria, Calif.) between steps. The membrane was then scanned with an Odyssey (LI-COR) scanner and analyzed by Odyssey software (Li-Cor, Lincoln, Nebr.).
as §2, with “Immediately after behavioral experiments, the animals were sacrificed and subjected to protein extraction of lumbar spinal cord, followed by Western-blot analysis as described above.” left out

[4] = tested on: thermal hyperalgesia in allodynic rats; test: Thermal hyperalgesia test (paw withdrawal latency) in CCI (Bennett) rats; assay type: in vivo, rat
rodents = settings: rodents, dose of 6 mmol/kg; cited from earlier work
agrin protein [5] = test: Rat lumbar spinal tissue culture, agrin protein by Western blot; assay type: cell-based
Procedure: (§4) Spinal cord tissue culture: The dorsal horn of fresh rat lumbar spinal cord was cut into 1-mm sections with a sharp blade under sterile conditions and maintained in culture in 12-well plates with DMEM and 10% FBS. After 2 days, 100 μM NMDA was added to 6 wells. The other 6 wells were used as controls. The culture was maintained for 24 hr, and the tissue subjected to RNA and protein extraction as well as RT-PCR and Western blotting to examine alterations of agrin gene and protein, as described in this Example.
as §3, with “The following day goat anti-mouse secondary antibody conjugated to Alexa Fluor680 (1:5000, Molecular Probe) was added to the membrane and incubated for 1 hr at room temperature. The samples were washed three times with TBS buffer (Tris Buffered Saline, DAKO, Carpinteria, Calif.) between steps.” left out, “Nebr.). […]” for “Nebr.).”

agrin mRNA = test: Rat lumbar spinal tissue culture, agrin mRNA by RT-PCR; assay type: cell-based; settings: for agrin gene expression: 24 h
Procedure: as §4
Following peripheral nerve injury, large amounts of glutamate, aspartate, and substance P are released into the extracellular space and excite post-synaptic neurons. […] Exogenous NMDA and substance P (“SP”) were used to culture rat lumbar spinal tissue. The normal dorsal part of lumbar spinal cord was cut into 0.5 mm slices and cultured in DMEM plus 10% FBS serum. After culturing for 24 h, the slices were treated with 100 μM NMDA with or without 10 nM substance P. Control slices were not treated with NMDA or substance P. Each group (experimental and control) had six samples. At 6 h and 24 h after treatment, the slices were subjected to RNA and protein extraction. The extractions were then assayed for agrin mRNA and agrin protein as described above in Examples 1-3. Briefly, the agrin mRNA was assayed using RT-PCR using C-terminal agrin primers for 36 cycles; and the agrin protein was assayed using Western Blot.

[6] = tested on: transitory inflammatory-induced hyperalgesia; settings: pain model with transitory inflammatory-induced hyperalgesia; cited from earlier work
[7] = Solubility for intrathecal injection; assay type: physicochemical
Procedure: as §1

C[C@@H]([C@@H](O)c1ccc(O)cc1)N1CCC(O)(c2ccccc2)CC1 [(1S,2S)-1-(4-hydroxy-phynel)-2-(4-hydroxy-4-phenyl-piperidino)-1-propanol]
effect on hyperalgesia/allodynia (NMDA receptors; animal models of neuropathic pain): depressed hyperalgesia/allodynia at a dose devoid of adverse effects

CC(=O)Nc1ccc(O)cc1 [APAP, acetaminophen, reference compound]
time after injection at which the effect began to diminish ([1]; intrathecal 100 nmol): 90 min | duration of effect on withdrawal threshold ([1]; intrathecal 100 nmol in 10 μl): short duration | effect on paw-withdrawal threshold [1]: a less robust effect on the withdrawal threshold | maximum withdrawal threshold ([1]; intrathecal, same dose and volume (100 nmol in 10 μl)): about 22 g | effect on tactile allodynia (paw withdrawal threshold) ([2]; pre-emptive intrathecal 100 nmol in 10 μl saline immediately prior to CCI, 0, 3, 7 days): showed an effect similar to SCP-1 | effect on paw withdrawal threshold at 7 days ([2]; pre-emptive intrathecal 100 nmol prior to CCI, 7 days after injury): sharply reduced | agrin protein (agrin protein [3]; pre-emptive intrathecal injection prior to CCI, 3 and 7 days): did not prevent the drop in agrin protein | increase in paw-withdrawal latency (thermal hyperalgesia) ([4]; intrathecal 100 nmol in 10 μl, CCI (Bennett) rat model): a similar effect on latency | effect on paw-withdrawal latency at 120 min post injection ([4]; intrathecal 100 nmol, 120 min): dropped to the initial latency value | lethality (rodents): killed all the animals

C[C@]12N[C@H](Cc3ccccc31)c1ccccc12 [MK801]
effect on agrin protein decrease from NMDA receptor over-stimulation (agrin protein [5]; 20 μM MK801 with either NMDA alone or NMDA plus substance P, 24 hr): blocked agrin decrease | effect on hyperalgesia and allodynia (NMDA receptors): suppress hyperalgesia and allodynia | doses at which the effects are seen (NMDA receptors): only be seen at doses that induce ataxia

CN[C@H](CC(=O)O)C(=O)O [NMDA]
agrin mRNA (agrin mRNA; 100 μM NMDA with or without SP, 6 h): No decrease in agrin mRNA | agrin gene expression (agrin mRNA; 100 μM NMDA, compared to controls without NMDA): visually less | agrin protein (agrin protein [5]; 100 μM NMDA, 24 h): a decrease in agrin

O=C(CNS(=O)(=O)c1ccccc1C(=O)O)Nc1ccc(O)cc1 [SCP-M1]
effect on paw-withdrawal threshold [1]: a faster response and a faster return to normal values for withdrawal thresholds than was seen in SCP-1 | analgesic activity [6]: high analgesic activity | solubility compared with SCP-1 [7]: very similar to that of SCP-1 | solubility in 45% 2-hydroxypropyl-α-cyclodextrin in saline ([7]; 45% cyclodextrin in saline, 10 mM solutions prepared): can dissolve them | solubility in water ([7]; water): do not dissolve readily in water

CNC1(c2ccccc2Cl)CCCCC1=O (stereo not drawn) [ketamine]
effect on hyperalgesia and allodynia (NMDA receptors): suppress hyperalgesia and allodynia | doses at which the effects are seen (NMDA receptors): only be seen at doses that induce ataxia

SP: substance P, increases NMDA receptor excitability by removing magnesium blocking (RPKPQQFFGLM-NH2; ends and bridges not checked; UniProt P20366 58-68, looked up)
agrin gene expression (agrin mRNA; 10 nM substance P added to 100 μM NMDA): enhanced the down-regulation by NMDA

agrin siRNA: siRNA for C-terminal agrin, position 5994; sense GCCCUCAAAGUCCUGUGAUtt (SEQ ID NO: 11), antisense SEQ ID NO: 12 (sense GCCCUCAAAGUCCUGUGAUTT; antisense AUCACAGGACUUUGAGGGCTT; chemistry not given here)
effect on the SCP-1 effect on withdrawal threshold ([2]; siRNA 100 nM intrathecally at 5 μl/hour continuously after bolus injection of SCP-1): antagonized the SCP-1 and inhibited the effect on withdrawal threshold | agrin protein level when injected with SCP-1 (agrin protein [3]; siRNA plus SCP-1, allodynic rats, 2 h post-injection): did not return to normal levels
